Measurements reported in the NIST ThermoML archive (doi:10.1021/je800395m).
Where “and” joins values, the source holds several entries; their conditions need not be identical. Equal entries are not always repeated. ± gives the expanded uncertainty stated by the source.

Settings: for Normal melting temperature: DTA
[1] = 392 K, Crystal, Calculated from knudsen effusion weight loss

## CC[C@H](/C=C/[C@@H](C)[C@H]1CC[C@H]2[C@@H]3CC=C4C[C@@H](O)CC[C@]4(C)[C@H]3CC[C@]12C)C(C)C [(22E)-stigmasta-5,22-dien-3β-ol]
390.9 K, Crystal, Calculated from knudsen effusion weight loss
  vapor or sublimation pressure: 3.9e-06 ± 2e-07 kPa
[1]
  vapor or sublimation pressure: 4.6e-06 ± 3e-07 kPa
393.5 K, Crystal, Calculated from knudsen effusion weight loss
  vapor or sublimation pressure: 5.6e-06 ± 3e-07 kPa
396.1 K, Crystal, Calculated from knudsen effusion weight loss
  vapor or sublimation pressure: 8.2e-06 ± 5e-07 kPa
397.2 K, Crystal, Calculated from knudsen effusion weight loss
  vapor or sublimation pressure: 9.4e-06 ± 5e-07 kPa
398.7 K, Crystal, Calculated from knudsen effusion weight loss
  vapor or sublimation pressure: 1.15e-05 ± 7e-07 kPa
401.2 K, Crystal, Calculated from knudsen effusion weight loss
  vapor or sublimation pressure: 1.61e-05 ± 9e-07 kPa
403.9 K, Crystal, Calculated from knudsen effusion weight loss
  vapor or sublimation pressure: 2.2e-05 ± 1e-06 kPa
406.3 K, Crystal, Calculated from knudsen effusion weight loss
  vapor or sublimation pressure: 2.96e-05 ± 1.7e-06 kPa
408.9 K, Crystal, Calculated from knudsen effusion weight loss
  vapor or sublimation pressure: 4.11e-05 ± 2.3e-06 kPa
411.5 K, Crystal, Calculated from knudsen effusion weight loss
  vapor or sublimation pressure: 5.38e-05 ± 3e-06 kPa
414 K, Crystal, Calculated from knudsen effusion weight loss
  vapor or sublimation pressure: 7.23e-05 ± 4e-06 kPa
416.6 K, Crystal, Calculated from knudsen effusion weight loss
  vapor or sublimation pressure: 9.54e-05 ± 5.1e-06 kPa
Crystal
  Normal melting temperature: 162 ± 1 °C

## c1ccc2cc3cc4ccccc4cc3cc2c1 [2,3-benzanthracene]
399 K, Crystal 2
  vapor or sublimation pressure: 1.46e-05 ± 1.5e-06 kPa
404.4 K, Crystal 2
  vapor or sublimation pressure: 2.1e-05 ± 2.2e-06 kPa
405.6 K, Crystal 2
  vapor or sublimation pressure: 2.55e-05 ± 2.6e-06 kPa
409.5 K, Crystal 2
  vapor or sublimation pressure: 3.39e-05 ± 3.5e-06 kPa
410.6 K, Crystal 2
  vapor or sublimation pressure: 4.22e-05 ± 4.3e-06 kPa
414.6 K, Crystal 2
  vapor or sublimation pressure: 5.42e-05 ± 5.5e-06 kPa
415.8 K, Crystal 2
  vapor or sublimation pressure: 6.67e-05 ± 6.8e-06 kPa
416.6 K, Crystal 2
  vapor or sublimation pressure: 6.39e-05 ± 6.5e-06 kPa
418.6 K, Crystal 2
  vapor or sublimation pressure: 7.84e-05 ± 8e-06 kPa
419.6 K, Crystal 2
  vapor or sublimation pressure: 8.46e-05 ± 8.8e-06 kPa
420.8 K, Crystal 2
  vapor or sublimation pressure: 0.0001032 ± 1e-05 kPa
424.7 K, Crystal 2
  vapor or sublimation pressure: 0.0001278 ± 1.3e-05 kPa
430.1 K, Crystal 2
  vapor or sublimation pressure: 0.0002146 ± 2.2e-05 kPa

## CC(C)[C@@H](C)/C=C/[C@@H](C)[C@H]1CC[C@H]2C3=CC=C4C[C@@H](O)CC[C@]4(C)[C@H]3CC[C@]12C [(22E)-ergosta-5,7,22-trien-3β-ol]
381.3 K, Crystal, Calculated from knudsen effusion weight loss
  vapor or sublimation pressure: 3.1e-06 ± 2e-07 kPa
383.8 K, Crystal, Calculated from knudsen effusion weight loss
  vapor or sublimation pressure: 4.4e-06 ± 3e-07 kPa
386.5 K, Crystal, Calculated from knudsen effusion weight loss
  vapor or sublimation pressure: 5.6e-06 ± 4e-07 kPa
394.4 K, Crystal, Calculated from knudsen effusion weight loss
  vapor or sublimation pressure: 1.42e-05 ± 8e-07 kPa
399.6 K, Crystal, Calculated from knudsen effusion weight loss
  vapor or sublimation pressure: 2.6e-05 ± 1.4e-06 kPa
402.3 K, Crystal, Calculated from knudsen effusion weight loss
  vapor or sublimation pressure: 3.54e-05 ± 1.9e-06 kPa
404.6 K, Crystal, Calculated from knudsen effusion weight loss
  vapor or sublimation pressure: 4.47e-05 ± 2.4e-06 kPa
407.2 K, Crystal, Calculated from knudsen effusion weight loss
  vapor or sublimation pressure: 5.91e-05 ± 3.3e-06 kPa
412.3 K, Crystal, Calculated from knudsen effusion weight loss
  vapor or sublimation pressure: 0.0001027 ± 5.4e-06 kPa
Crystal
  Normal melting temperature: 158 ± 1 °C

## CC[C@H](CC[C@@H](C)[C@H]1CC[C@H]2[C@@H]3CC=C4C[C@@H](O)CC[C@]4(C)[C@H]3CC[C@]12C)C(C)C [β-sitosterol]
389.9 K, Crystal, Calculated from knudsen effusion weight loss
  vapor or sublimation pressure: 9.4e-06 ± 6e-07 kPa
392.4 K, Crystal, Calculated from knudsen effusion weight loss
  vapor or sublimation pressure: 1.27e-05 ± 7e-07 kPa
395.2 K, Crystal, Calculated from knudsen effusion weight loss
  vapor or sublimation pressure: 1.72e-05 ± 9e-07 kPa
397.7 K, Crystal, Calculated from knudsen effusion weight loss
  vapor or sublimation pressure: 2.23e-05 ± 1.2e-06 kPa
400.3 K, Crystal, Calculated from knudsen effusion weight loss
  vapor or sublimation pressure: 2.99e-05 ± 1.7e-06 kPa
405.6 K, Crystal, Calculated from knudsen effusion weight loss
  vapor or sublimation pressure: 5.2e-05 ± 3e-06 kPa
410.7 K, Crystal, Calculated from knudsen effusion weight loss
  vapor or sublimation pressure: 9.02e-05 ± 4.8e-06 kPa
Crystal
  Normal melting temperature: 138 ± 1 °C

## CC(C)CCC[C@@H](C)[C@H]1CC[C@H]2[C@@H]3CC=C4C[C@@H](O)CC[C@]4(C)[C@H]3CC[C@]12C [.DELTA.5-cholesten-3β-ol]
386.6 K, Crystal, Calculated from knudsen effusion weight loss
  vapor or sublimation pressure: 1.18e-05 ± 7e-07 kPa
[1]
  vapor or sublimation pressure: 2.13e-05 ± 1.2e-06 kPa
397.3 K, Crystal, Calculated from knudsen effusion weight loss
  vapor or sublimation pressure: 3.95e-05 ± 2.2e-06 kPa
403.1 K, Crystal, Calculated from knudsen effusion weight loss
  vapor or sublimation pressure: 7.14e-05 ± 3.9e-06 kPa
408.2 K, Crystal, Calculated from knudsen effusion weight loss
  vapor or sublimation pressure: 0.0001251 ± 6.8e-06 kPa
413.8 K, Crystal, Calculated from knudsen effusion weight loss
  vapor or sublimation pressure: 0.0002146 ± 1.1e-05 kPa
Crystal
  Normal melting temperature: 148 ± 1 °C

## c1ccc2cc3ccccc3cc2c1 [anthracene]
319.6 K, Crystal, Calculated from knudsen effusion weight loss
  vapor or sublimation pressure: 1.3e-05 ± 8e-07 kPa and 1.29e-05 ± 8e-07 kPa
323.9 K, Crystal, Calculated from knudsen effusion weight loss
  vapor or sublimation pressure: 2.14e-05 ± 1.2e-06 kPa
326.8 K, Crystal, Calculated from knudsen effusion weight loss
  vapor or sublimation pressure: 3.04e-05 ± 1.7e-06 kPa
326.9 K, Crystal, Calculated from knudsen effusion weight loss
  vapor or sublimation pressure: 3e-05 ± 1.7e-06 kPa
331.7 K, Crystal, Calculated from knudsen effusion weight loss
  vapor or sublimation pressure: 5.29e-05 ± 2.7e-06 kPa
332.1 K, Crystal, Calculated from knudsen effusion weight loss
  vapor or sublimation pressure: 5.32e-05 ± 2.7e-06 kPa
332.2 K, Crystal, Calculated from knudsen effusion weight loss
  vapor or sublimation pressure: 5.41e-05 ± 2.9e-06 kPa
334 K, Crystal, Calculated from knudsen effusion weight loss
  vapor or sublimation pressure: 6.51e-05 ± 3.6e-06 kPa
334.2 K, Crystal, Calculated from knudsen effusion weight loss
  vapor or sublimation pressure: 6.59e-05 ± 3.7e-06 kPa
337 K, Crystal, Calculated from knudsen effusion weight loss
  vapor or sublimation pressure: 9.16e-05 ± 4.9e-06 kPa
339.4 K, Crystal, Calculated from knudsen effusion weight loss
  vapor or sublimation pressure: 0.0001131 ± 6.1e-06 kPa
342 K, Crystal, Calculated from knudsen effusion weight loss
  vapor or sublimation pressure: 0.0001487 ± 8.5e-06 kPa
349.7 K, Crystal, Calculated from knudsen effusion weight loss
  vapor or sublimation pressure: 0.0003165 ± 1.7e-05 kPa and 0.0003121 ± 1.7e-05 kPa
354.8 K, Crystal, Calculated from knudsen effusion weight loss
  vapor or sublimation pressure: 0.0005077 ± 2.7e-05 kPa
